A short description of one series: in vitro. The settings on record: human, hela cells, % viability.
The test system of the next series is HeLa. The settings on record: bulk resorufin, single well, 28.5 h, 10 µM, Bulk resorufin fluorescence.

As usually defined, the viability is a read-out of living cells in per cent, often relative to untreated cells. On to `C=CCNC(=O)Cn1c([C@@H]2CCCO2)cc2cccnc21` [CBK282873], for which, in “in vitro”, the viability at 28.5 h, 10 µM stood at 98.2%. In addition, the % viability in the series on HeLa is 110%.
As to `O[C@@H]1C[C@H]2CN(Cc3ccsc3)[C@@H](Cc3ccccc3)CN2C1` [CBK285376], the viability at 28.5 h, 10 µM in “in vitro” came out at 91.9%. Also, in the series on HeLa, the % viability came out at 95.8%.
For `Cc1nn(CC(C)C(=O)O)c(C)c1Br` (stereo not shown) [CBK269756], in that order: 92.4% and 86.7%.
For the compound `O=C1CCC(=O)N1CCOc1nccnc1OC1CCN(Cc2cccnc2)CC1` [CBK084339], in the series “in vitro”, the viability at 28.5 h, 10 µM worked out at 107%. The % viability in the series on HeLa is 89.7%.
With `Nc1nn2c(c1Cc1c(Cl)cccc1Cl)OCCCC2` [CBK089335], the viability at 28.5 h, 10 µM in “in vitro” was found to be 91.8%. Besides, the % viability with HeLa came to 86.2%.
For the compound `COC(=O)c1ccccc1OC[C@@H]1CN(C(=O)C(C)(C)N)C[C@H]1c1cc2ccccc2o1` [CBK022525T], the viability at 28.5 h, 10 µM in the series “in vitro” came out at 106%. The % viability in the series on HeLa was found to be 92.2%.
For the compound `FC(F)(F)c1cccc(-c2cnn(-c3ccncc3)n2)c1` [CBK112668], the viability at 28.5 h, 10 µM in “in vitro” is 102%. Besides, the % viability with HeLa was found to be 93.6%.
For the compound `O=C(O)C1CCN(C2CC(=O)N(CCc3ccccc3)C2=O)CC1` (stereo not shown) [CBK269100], the viability at 28.5 h, 10 µM in the series “in vitro” amounted to 97.1%. In the series with HeLa, the % viability was found to be 97.3%.
`C[C@@H](Cn1c(=O)oc2ccccc21)NC(=O)Cc1c[nH]c2ccccc12` [CBK284534]: in the series “in vitro”, the viability at 28.5 h, 10 µM came out at 85.7%. Besides, in the series with HeLa, the % viability came out at 88.7%.
With `Cc1cc(CNS(=O)(=O)c2sc3ccc(Cl)cc3c2C)no1` [CBK062277], in “in vitro”, the viability at 28.5 h, 10 µM was determined as 109%. Besides, the % viability in the series on HeLa was found to be 92.3%.
On to `CC[C@H](Cn1ncc2ccccc2c1=O)NC(=O)Cc1ccsc1` [CBK284306], for which, in the series “in vitro”, the viability at 28.5 h, 10 µM turned out to be 98.4%. In addition, the % viability with HeLa was determined as 88.7%.
Regarding `CC(C)[C@H](Cn1nc(C2CC2)ccc1=O)NC(=O)Cc1cccs1` [CBK282368], the viability at 28.5 h, 10 µM in the series “in vitro” worked out at 79.7%. Also, the % viability in the series with HeLa was found to be 88.6%.
For `CCCOc1cccc(C(=O)Nc2cccc(-c3nc4ncccc4o3)c2C)c1` [CBK072326], in that order: 97.9% and 106%.
Regarding `O=C(c1cnc2[nH][nH]c(=O)c2c1)c1ccccc1O` [CBK288082], the viability at 28.5 h, 10 µM in “in vitro” stood at 90.5%. In addition, in the series with HeLa, the % viability worked out at 110%.
As for `O=C(O)c1cccc(Sc2ncccc2C(F)(F)F)c1` [CBK093589], the viability at 28.5 h, 10 µM in the series “in vitro” was 103%. Also, the % viability in the series on HeLa was found to be 108%.
Consider `CCn1cc(CN2C[C@@H]3CCCN3C[C@@H]2CCSC)cn1` [CBK283181], for which the viability at 28.5 h, 10 µM in the series “in vitro” was determined as 86.9%. Also, the % viability in the series with HeLa is 106%.
For the compound `CC(C)(C)OC(=O)N1CCC[C@@H]1C(=O)c1cccs1` [CBK284289], the viability at 28.5 h, 10 µM in “in vitro” amounted to 100%. For the same compound, the % viability in the series with HeLa turned out to be 90.7%.
On to `CC[C@H](CO)NC(=O)c1coc(COc2ccc3sc(C)nc3c2)n1` [CBK306602], for which the viability at 28.5 h, 10 µM in “in vitro” amounted to 85.3%. Besides, the % viability with HeLa was found to be 93.5%.
`O=C(NC[C@H]1CCCN(C(=O)c2cccnc2)C1)c1cccs1` [CBK284264]: the viability at 28.5 h, 10 µM in “in vitro” was 81.6%. For the same compound, in the series on HeLa, the % viability was 90.3%.
The corresponding values for `CCC1CCCCN1C(=O)c1ccc(C(=O)NC)cc1` (stereo not shown) [CBK083371] are 95.6% and 103%.
Take `CC(C)[C@@H](CO)Nc1nccnc1-c1cccc(C(=O)O)c1` [CBK036665]: the viability at 28.5 h, 10 µM in “in vitro” is 85.6%. Moreover, the % viability in the series on HeLa came to 93%.
Take `O=C(CN1C(=O)[C@@H]2CCCN2C(=O)c2ccccc21)NCc1ccccc1` [CBK286318]: the viability at 28.5 h, 10 µM in the series “in vitro” came out at 98.6%. Also, the % viability in the series with HeLa was found to be 89.5%.
For the compound `COc1cc(CNCc2cccnc2)cc(Br)c1OCc1ccc(Cl)cc1` [CBK074596C], the viability at 28.5 h, 10 µM in “in vitro” turned out to be 107%. Also, the % viability in the series on HeLa stood at 95.5%.
In the case of `C[C@@H]1CN2CCCC2CN1Cc1ccc(N(C)C)cc1` (stereo partly shown) [CBK285406], the viability at 28.5 h, 10 µM in the series “in vitro” was found to be 101%. Further, the % viability with HeLa was 102%.
As to `C=CCNC(=O)[C@@H]1C=CCN1C(=O)c1ccc(OC)cc1` [CBK284317], the viability at 28.5 h, 10 µM in the series “in vitro” was found to be 95.4%. For the same compound, in the series with HeLa, the % viability was 76.8%.
`CCCC(=O)NCc1ccc(OC2CCNCC2)cc1` [CBK024489T]: in the series “in vitro”, the viability at 28.5 h, 10 µM was found to be 95.6%. In addition, the % viability with HeLa is 112%.
For `CC(=O)c1sc(NC(=O)c2ccc(Cl)cc2)nc1C` [CBK087686], in the series “in vitro”, the viability at 28.5 h, 10 µM is 86.7%. Moreover, the % viability with HeLa is 88.4%.
As for `O=C(CC1Nc2ccccc2NC1=O)Nc1ccccc1` (stereo not shown) [CBK265365], in “in vitro”, the viability at 28.5 h, 10 µM was determined as 99.8%. Moreover, in the series with HeLa, the % viability is 103%.
For the compound `Cc1cc(C(NC(C)(C)C)C(=O)O)cc(C)c1O` (stereo not shown) [CBK027143], the viability at 28.5 h, 10 µM in the series “in vitro” is 86.6%. Moreover, the % viability in the series on HeLa came to 90.9%.
For `Cc1cc(-c2nccnc2NCCCN2CCCC2=O)cc(C)c1O` [CBK037632], in that order: 94.1% and 98%.
For `O=C(NCCc1ccccc1)[C@@H]1C=CCN1C(=O)c1cccs1` [CBK284320], in that order: 95.2% and 92.9%.
`O=C(NCCCN1CCCCC1)/C(=N\O)c1ccccc1` [CBK288524]: the viability at 28.5 h, 10 µM in the series “in vitro” turned out to be 97.7%. Besides, in the series on HeLa, the % viability was 85.9%.
`C[C@@H](Cn1c(=O)oc2ccccc21)NC(=O)Cc1ccsc1` [CBK284535]: the viability at 28.5 h, 10 µM in the series “in vitro” was 96.9%. In addition, the % viability in the series on HeLa stood at 84.7%.
In the case of `COc1ccccc1CN1CC2CCCN2C[C@H]1C` (stereo partly shown) [CBK285409], the viability at 28.5 h, 10 µM in “in vitro” worked out at 90.6%. Moreover, the % viability with HeLa is 106%.
Turning to `C[C@H](Cn1nc2c(cc1=O)CCCCC2)NC(=O)c1ccccc1F` [CBK284547], the viability at 28.5 h, 10 µM in “in vitro” came out at 89.5%. Further, the % viability with HeLa amounted to 91.5%.
`CC(C)Nc1cc(Sc2ccc(Cl)c(Cl)c2)ncn1` [CBK089500]: the viability at 28.5 h, 10 µM in “in vitro” is 90.8%. In the series on HeLa, the % viability was found to be 83.3%.
In the case of `Cc1cc(-c2cncc(NCCc3c[nH]c4ccccc34)n2)cc(C)c1O` [CBK107896], the viability at 28.5 h, 10 µM in the series “in vitro” turned out to be 101%. Also, the % viability with HeLa was 83%.
For `Cc1ccc(S(=O)(=O)N2CCN(c3ccc(Cl)c(Cl)c3)CC2)c(C)c1` [CBK099298], in that order: 111% and 118%.
In the case of `Cn1nnc2cc(NC(=O)N3CC4(C)CC3CC(C)(C)C4)ccc21` (stereo not shown) [CBK304389], the viability at 28.5 h, 10 µM in “in vitro” is 94.6%. For the same compound, the % viability in the series with HeLa stood at 95.3%.
The corresponding values for `CSCC[C@@H]1CN2CCC[C@H]2CN1Cc1cn(C)nc1C` [CBK285462] are 95.5% and 107%.
The corresponding values for `CS(=O)(=O)N1CC=C[C@H]1C(=O)NCc1ccc(F)cc1` [CBK284270] are 97.6% and 87.2%.
For the compound `C[C@H]1CN2C[C@H](O)CC2CN1Cc1ccc(Cl)c(Cl)c1` (stereo partly shown) [CBK285404], the viability at 28.5 h, 10 µM in “in vitro” turned out to be 111%. The % viability in the series on HeLa is 94.3%.
On to `COc1ccc(CN2CCCN(c3nccc(OCCN4CCOCC4)n3)CC2)cc1` [CBK083932], for which the viability at 28.5 h, 10 µM in the series “in vitro” amounted to 104%. The % viability with HeLa was 108%.
For `CCOc1ccc(-c2ccnc(NC[C@@H]3CCCO3)n2)cc1C(=O)O` [CBK306568], the viability at 28.5 h, 10 µM in “in vitro” was 86.5%. The % viability with HeLa was found to be 89.2%.

For the origin of these results see publication PMC12040169 (PLOS Biology, 2025).
